# Measurements published in patent US10899707B2, “Methods for forming peroxyformic acid and uses thereof” (ECOLAB USA INC., priority 2014, dated 2021).
# Values joined by “and” are separate entries in the source; they are usually repeats but may differ in a detail not shown here. Equal values may be shown once. Read-outs that look alike come from different tables or passages of the source.
# Tests used:
# [1] = tested on: Nalidixic acid resistant E. coli O157:H7; test: Reduction of E. coli on raw beef brisket, dip treatment; assay type: cell-based; settings: for CFU/cm2 / CFU/ml / Log CFU/cm2: replicates
# From the text: Nalidixic acid resistant E. coli O157:H7 was used to evaluate the efficacy in treatment with performic acid composition on raw beef brisket according to the conditions shown in Table 32.
# Enterococcus = test: Bactericidal activity of PFA versus POAA; assay type: cell-based; settings: E. hirae ATCC 10541, 5 minutes, dirty conditions, 20° C.
# From the text: (§1) Staphylococcus, Enterococcus and Pseudomonas pathogens were used to evaluate the micro efficacy of PFA in comparison to POAA.
# Pseudomonas = test: Bactericidal activity of PFA versus POAA; assay type: cell-based; settings: P. aeruginosa ATCC 15442, 5 minutes, dirty conditions, 20° C.
# From the text: as §1
# Staphylococcus = test: Bactericidal activity of PFA versus POAA; assay type: cell-based; settings: S. aureus ATCC 6538, 5 minutes, dirty conditions, 20° C.
# From the text: as §1
# [2] = tested on: L. monocytogenes (ATCC 19114, 19116 and 4594); test: Low temperature disinfectant efficacy, log reduction; assay type: cell-based; settings: 4° C.; 1 minute contact exposure; FIG. 32
# Description: Micro efficacy of PFA according to the present invention was evaluated under low temperature, low oxygen conditions employing the formulation of Table 41.
# The log reduction of L. monocytogenes (ATCC 19114, 19116 and 4594) were evaluated at low temperature (4° C.) comparing peroxvacetic acid to the peroxyformic acid generated according to the formulation shown in Table 41. The results are shown in FIG. 32 comparing disinfectant efficacy after a 1 minute contact exposure to the disinfectants.
# As a result, the performic acid generated has a great fit for application in brewery plants. The exceptional antimicrobial efficacy of performic acid at low temperature meets the requirement of cold temperature environment of brewery operations, while common biocides including peroxycarboxylic acids such as peracetic acids will suffer the efficacy lose under low temperatures. In addition, formic acid that always coexists with performic acid is a very efficient acidulant, which will help prevent/dissolve beer stone, thus eliminate the additional acid wash. As a further benefit the performic acid composition has very high performic acid to H2O2 ratio, which practically eliminates the O2 that could potentially introduced to the liquid being processed (i.e. beer) and interfere with the organoleptic effects and negative taste effects.
# [3] = tested on: microbes in water sample (80% tap water 20% produced water); test: Kill performance (log reduction) in water sample, 5 min exposure; assay type: cell-based; settings: exposure time 5 min
# From the text: Synergy examples range from pH 0 to 12 at varied concentrations. Synergistic activity is defined as a technical effect that exceeds the addition of the cumulative performance of the materials in formulation.
# As referred to in Table 8 the following commercially-available test substances were employed: POAA (15% POAA, 10% H2O2), PAA 1 (21% peracetic, 3.5% H2O2), POOA (0.5% POOA, 6.8% H2O2).
# [4] = tested on: microorganisms in produced water; test: Microbial efficacy by ATP concentration (AccuCount) in produced water; assay type: cell-based; settings: PFA 5 ppm active, compounds 50 ppm product
# Description: Microbial efficacy of PFA alone (5 ppm active) or PFA (5 ppm active) in conjunction with the compounds (50 ppm product) listed in the Table 20 below and in FIG. 13 were tested by measuring the ATP concentration in the untreated and treated produced water samples (using AccuCount technology). Reductions in bacterial numbers were tabulated as % kill for each experiment. The results are represented in FIG. 13 and in Table 20.
# [5] = Performance of corrosion inhibitor in sea water and produced water systems (% protection); settings: 200 ppm active performic acid, 50 ppm corrosion inhibitor (PFA: no inhibitor)
# Description: 200 ppm active of performic acid was added. 50 ppm of corrosion inhibitor was added for corrosion protection. % protection was plotted by comparison of the corrosion rate in the presence of corrosion inhibitor to the corrosion rate with no corrosion inhibitor addition (PFA or PFA-PW) as shown in Table 30.
# [6] = tested on: acid producing bacteria (APBs); test: Biocidal performance on treated produced water, bug bottles serial dilution; assay type: cell-based; settings: PFA treatment of produced water
# Description: Treatment of produced water with performic acid was evaluated using performic acid compositions containing a corrosion inhibitor. As shown in FIG. 28 (grey scale) the lighter color […] in the water, whereas the darker shading indicates no growth. Untreated has E5 bacteria/mL; 0.5 ppm PFA treated has E3 bacteria/mL. The bacterial bug bottles are specific in supporting growth of acid producing bacteria (APBs). Growth of APB is indicated by a color change from dark to light color (pink to yellow). 1 mL of initial inoculum was diluted 10 times in subsequent bottles. Therefore each bottle indicates a El bacteria/mL. Based on the results observed by growth/no growth of bacteria it can be concluded that PFA treatment results in at least a reduction of 2 log (equivalent of E2 bacteria/mL) bacteria.
# Various pathogens = assay type: cell-based; settings: for Result (Passing Requirement 5 log reduction): EN 13727
# [7] = 220 ppm POAA, pH 8.86, 10 minutes, raw beef brisket
# [8] = 180 ppm PFA, pH 8.76, 10 minutes, raw beef brisket
structure (smiles),measurement,setting,value
"CC(=O)OO [POAA, peroxyacetic acid, reference compound]",Average Log CFU/cm2,[1]; [7],2.98 Log CFU/cm2
same,Log reduction,[1]; [7],1.06
same,CFU/cm2,[1]; [7],1.20E+03 CFU/cm2 and 9.00E+02 CFU/cm2 and 8.00E+02 CFU/cm2
same,CFU/ml,[1]; [7],6.00E+02 CFU/ml and 4.50E+02 CFU/ml and 4.00E+02 CFU/ml
same,Log CFU/cm2,[1]; [7],3.08 Log CFU/cm2 and 2.95 Log CFU/cm2 and 2.90 Log CFU/cm2
same,Log reduction,"[1]; 220 ppm POAA, pH 8.86, dip for 10 minutes, ambient",1.06
same,Average CFU/mL,"Enterococcus; 24.8 ppm POAA × 1.25, pH 6.73",>3.30E+05 CFU/mL
same,Log10 Growth,"Enterococcus; 24.8 ppm POAA × 1.25, pH 6.73",>5.52
same,Average CFU/mL,"Enterococcus; 37.6 ppm POAA × 1.25, pH 6.90",9.25E+03 CFU/mL
same,Log10 Growth,"Enterococcus; 37.6 ppm POAA × 1.25, pH 6.90",3.97
same,Average CFU/mL,"Enterococcus; 62.4 ppm POAA × 1.25, pH 6.98",<140 CFU/mL
same,Log10 Growth,"Enterococcus; 62.4 ppm POAA × 1.25, pH 6.98",<2.15
same,Average CFU/mL,"Pseudomonas; 24.8 ppm POAA × 1.25, pH 6.73",<140 CFU/mL
same,Log10 Growth,"Pseudomonas; 24.8 ppm POAA × 1.25, pH 6.73",<2.15
same,Average CFU/mL,"Pseudomonas; 37.6 ppm POAA × 1.25, pH 6.90",<140 CFU/mL
same,Log10 Growth,"Pseudomonas; 37.6 ppm POAA × 1.25, pH 6.90",<2.15
same,Average CFU/mL,"Pseudomonas; 62.4 ppm POAA × 1.25, pH 6.98",<140 CFU/mL
same,Log10 Growth,"Pseudomonas; 62.4 ppm POAA × 1.25, pH 6.98",<2.15
same,Average CFU/mL,"Staphylococcus; 24.8 ppm POAA × 1.25, pH 6.73",1.77E+05 CFU/mL
same,Log10 Growth,"Staphylococcus; 24.8 ppm POAA × 1.25, pH 6.73",5.25
same,Average CFU/mL,"Staphylococcus; 37.6 ppm POAA × 1.25, pH 6.90",<140 CFU/mL
same,Log10 Growth,"Staphylococcus; 37.6 ppm POAA × 1.25, pH 6.90",<2.15
same,Average CFU/mL,"Staphylococcus; 62.4 ppm POAA × 1.25, pH 6.98",<140 CFU/mL
same,Log10 Growth,"Staphylococcus; 62.4 ppm POAA × 1.25, pH 6.98",<2.15
same,disinfectant efficacy at the lower temperature (in words),[2],significantly decreases
"O=COO [PFA, peroxyformic acid]",Log reduction,[3]; 2 ppm PFA,3.01
same,Log reduction,[3]; 8.5 ppm PFA,5.69
same,Log reduction,[3]; 10 ppm PFA,5.28
same,% Kill,[4],87.9%
same,"% Protection, 3 hrs after dosing",[5]; produced water (PW),−237.2%
same,"% Protection, 8 hrs after dosing",[5]; produced water (PW),−228.1%
same,"% Protection, Last hour of testing",[5]; produced water (PW),−261.2%
same,"% Protection, 3 hrs after dosing",[5]; sea water,−10666.2%
same,"% Protection, 8 hrs after dosing",[5]; sea water,−13447.5%
same,"% Protection, Last hour of testing",[5]; sea water,−14481.9%
same,reduction of bacteria,[6],≥ 2 log
same,Average Log CFU/cm2,[1]; [8],3.22 Log CFU/cm2
same,Log reduction,[1]; [8],0.83
same,CFU/cm2,[1]; [8],1.84E+03 CFU/cm2 and 1.42E+03 CFU/cm2 and 1.72E+03 CFU/cm2
same,CFU/ml,[1]; [8],9.20E+02 CFU/ml and 7.10E+02 CFU/ml and 8.60E+02 CFU/ml
same,Log CFU/cm2,[1]; [8],3.26 Log CFU/cm2 and 3.15 Log CFU/cm2 and 3.24 Log CFU/cm2
same,Average CFU/mL,"Enterococcus; 20 ppm PFA × 1.25, pH 6.61",6.30E+03 CFU/mL
same,Log10 Growth,"Enterococcus; 20 ppm PFA × 1.25, pH 6.61",3.80
same,Average CFU/mL,"Enterococcus; 30 ppm PFA × 1.25, pH 6.74",2.15E+02 CFU/mL
same,Log10 Growth,"Enterococcus; 30 ppm PFA × 1.25, pH 6.74",2.33
same,Average CFU/mL,"Enterococcus; 50 ppm PFA × 1.25, pH 6.60",<140 CFU/mL
same,Log10 Growth,"Enterococcus; 50 ppm PFA × 1.25, pH 6.60",<2.15
same,Average CFU/mL,"Pseudomonas; 20 ppm PFA × 1.25, pH 6.61",<140 CFU/mL
same,Log10 Growth,"Pseudomonas; 20 ppm PFA × 1.25, pH 6.61",<2.15
same,Average CFU/mL,"Pseudomonas; 30 ppm PFA × 1.25, pH 6.74",<140 CFU/mL
same,Log10 Growth,"Pseudomonas; 30 ppm PFA × 1.25, pH 6.74",<2.15
same,Average CFU/mL,"Pseudomonas; 50 ppm PFA × 1.25, pH 6.60",<140 CFU/mL
same,Log10 Growth,"Pseudomonas; 50 ppm PFA × 1.25, pH 6.60",<2.15
same,Average CFU/mL,"Staphylococcus; 20 ppm PFA × 1.25, pH 6.61",<140 CFU/mL
same,Log10 Growth,"Staphylococcus; 20 ppm PFA × 1.25, pH 6.61",<2.15
same,Average CFU/mL,"Staphylococcus; 30 ppm PFA × 1.25, pH 6.74",<140 CFU/mL
same,Log10 Growth,"Staphylococcus; 30 ppm PFA × 1.25, pH 6.74",<2.15
same,Average CFU/mL,"Staphylococcus; 50 ppm PFA × 1.25, pH 6.60",<140 CFU/mL
same,Log10 Growth,"Staphylococcus; 50 ppm PFA × 1.25, pH 6.60",<2.15
same,Result (Passing Requirement 4 log reduction),"Various pathogens; EN 13624, Aspergillus brasiliensis ATCC 1604, 450 ppm PFA pH 6-7",PASS
same,Result (Passing Requirement 4 log reduction),"Various pathogens; EN 13624, Canidia albicans ATCC 10231, 450 ppm PFA pH 6-7",PASS
same,Result (Passing Requirement 3 log reduction),"Various pathogens; EN 13704, Bacillus subtilis ATCC 6633, 450 ppm PFA pH 6-7",PASS
same,Result (Passing Requirement 5 log reduction),"Various pathogens; Enterococcus hirae ATCC 10541, 450 ppm PFA pH 6-7",PASS
same,Result (Passing Requirement 5 log reduction),"Various pathogens; P. aeruginosa ATCC 15442, 450 ppm PFA pH 6-7",PASS
same,Result (Passing Requirement 5 log reduction),"Various pathogens; Staph. Aureus ATCC 6538, 450 ppm PFA pH 6-7",PASS
same,Result (Passing Requirement 4 log reduction),Various pathogens; pH 6,PASS
same,disinfectant efficacy at the lower temperature (in words),[2],does not decrease
